Experimental data published in ChEMBL document CHEMBL3885881, “DrugMatrix”.

Species on record: Rattus norvegicus
Assay: DrugMatrix - Regimen: Daily Repeat
Assay type: toxicity, organism-based, Sprague-Dawley
Parameters: regimen Daily Repeat, gender Male, age 6-8 weeks
Conditions: in vivo, po, 72 h, route oral GAVAGE, time 3 day, vehicle .5 % CMC; for ABSOLUTE BASOPHIL / ABSOLUTE EOSINOPHIL / ABSOLUTE LYMPHOCYTE / ABSOLUTE MONOCYTE / ABSOLUTE SEGMENTED NEUTROPHIL / BASOPHIL / EOSINOPHIL / ERYTHROCYTE COUNT / HEMATOCRIT / HEMOGLOBIN / LEUKOCYTE COUNT / LYMPHOCYTE / MEAN CORPUSCULAR HEMOGLOBIN / MEAN CORPUSCULAR HEMOGLOBIN CONCENTRATION / MEAN CORPUSCULAR VOLUME / MONOCYTE / NEUTROPHIL / NUCLEATED RED BLOOD CELLS / PLATELET COUNT: tissue Blood
[1] = 0 mg/kg, tissue Plasma, dose level Control

SMILES: C=C1CC[C@H](O)C/C1=C/C=C1\CCC[C@]2(C)[C@@H]([C@H](C)/C=C/[C@H](C)C(C)C)CC[C@@H]12 [ERGOCALCIFEROL]
- ABSOLUTE BASOPHIL (0 mg/kg, dose level Control): 0 CELLS/uL
- ABSOLUTE EOSINOPHIL (0 mg/kg, dose level Control): 8.83 CELLS/uL
- ABSOLUTE LYMPHOCYTE (0 mg/kg, dose level Control): 7222.33 CELLS/uL
- ABSOLUTE MONOCYTE (0 mg/kg, dose level Control): 0 CELLS/uL
- ABSOLUTE SEGMENTED NEUTROPHIL (0 mg/kg, dose level Control): 752.17 CELLS/uL
- BASOPHIL (0 mg/kg, dose level Control): 0%
- EOSINOPHIL (0 mg/kg, dose level Control): 0.17%
- ERYTHROCYTE COUNT (0 mg/kg, dose level Control): 5.22 x10E6/uL
- HEMATOCRIT (0 mg/kg, dose level Control): 32.6%
- HEMOGLOBIN (0 mg/kg, dose level Control): 12.43 G/DL
- LEUKOCYTE COUNT (0 mg/kg, dose level Control): 7.98 x10E3/uL
- LYMPHOCYTE (0 mg/kg, dose level Control): 91.17%
- MEAN CORPUSCULAR HEMOGLOBIN (0 mg/kg, dose level Control): 23.87 pg
- MEAN CORPUSCULAR HEMOGLOBIN CONCENTRATION (0 mg/kg, dose level Control): 38.18 G/DL
- MEAN CORPUSCULAR VOLUME (0 mg/kg, dose level Control): 62.48 fL
- MONOCYTE (0 mg/kg, dose level Control): 0%
- NEUTROPHIL (0 mg/kg, dose level Control): 8.67%
- NUCLEATED RED BLOOD CELLS (0 mg/kg, dose level Control): 0 /100WBC
- PLATELET COUNT (0 mg/kg, dose level Control): 1082.33 x10E3/uL
- ALANINE AMINOTRANSFERASE [1]: 42.17 u/L
- ALBUMIN [1]: 4.33 G/DL
- ALKALINE PHOSPHATASE [1]: 451.17 u/L
- ASPARTATE AMINOTRANSFERASE [1]: 76.17 u/L
- BLOOD UREA NITROGEN [1]: 13.33 mg/dL
- CARBON DIOXIDE [1]: 31.67 mmol/L
- CHLORIDE [1]: 96.5 MEQ/L
- CHOLESTEROL [1]: 78 mg/dL
- CREATINE PHOSPHOKINASE [1]: 216.5 u/L
- CREATININE [1]: 0.22 mg/dL
- GLUCOSE [1]: 137 mg/dL
- LACTATE DEHYDROGENASE [1]: 138.5 u/L
- LIPASE [1]: 8.67 u/L
- PHOSPHORUS [1]: 12.68 mg/dL
- POTASSIUM [1]: 6.23 MEQ/L
- SODIUM [1]: 143.47 MEQ/L
- TOTAL BILIRUBIN [1]: 0.15 mg/dL
- TOTAL PROTEIN [1]: 6.33 G/DL
- URIC ACID [1]: 1.1 mg/dL
- ABSOLUTE BASOPHIL (1 mg/kg, dose level Low): 0 CELLS/uL
- ABSOLUTE EOSINOPHIL (1 mg/kg, dose level Low): 30.67 CELLS/uL
- ABSOLUTE LYMPHOCYTE (1 mg/kg, dose level Low): 8277.33 CELLS/uL
- ABSOLUTE MONOCYTE (1 mg/kg, dose level Low): 0 CELLS/uL
- ABSOLUTE SEGMENTED NEUTROPHIL (1 mg/kg, dose level Low): 658.67 CELLS/uL
- BASOPHIL (1 mg/kg, dose level Low): 0%
- EOSINOPHIL (1 mg/kg, dose level Low): 0.33%
- ERYTHROCYTE COUNT (1 mg/kg, dose level Low): 5.18 x10E6/uL
- HEMATOCRIT (1 mg/kg, dose level Low): 32.07%
- HEMOGLOBIN (1 mg/kg, dose level Low): 12.3 G/DL
- LEUKOCYTE COUNT (1 mg/kg, dose level Low): 8.97 x10E3/uL
- LYMPHOCYTE (1 mg/kg, dose level Low): 92.33%
- MEAN CORPUSCULAR HEMOGLOBIN (1 mg/kg, dose level Low): 23.7 pg
- MEAN CORPUSCULAR HEMOGLOBIN CONCENTRATION (1 mg/kg, dose level Low): 38.37 G/DL
- MEAN CORPUSCULAR VOLUME (1 mg/kg, dose level Low): 61.9 fL
- MONOCYTE (1 mg/kg, dose level Low): 0%
- NEUTROPHIL (1 mg/kg, dose level Low): 7.33%
- NUCLEATED RED BLOOD CELLS (1 mg/kg, dose level Low): 0.33 /100WBC
- PLATELET COUNT (1 mg/kg, dose level Low): 1019.33 x10E3/uL
